Measured values published in article PMC12114630 (Pharmaceuticals, 2025).
Like-named read-outs stand apart in the source and are kept apart here.

What was measured:
D2R (hD2R) = molecular target: T1, D2R (hD2R) (Homo sapiens, UniProt P14416); assay: [3H]N-methylspiperone competition, membranes; type: binding; details: read-out: pKi / D2R (converted)
T1 construct: gene DRD2; human cloned receptor stably expressed in HEK293 cells; membranes
Excerpt: [3H]N-methylspiperone competition, membranes on D2R (hD2R)

D3R (hD3R) = molecular target: T2, D3R (hD3R) (Homo sapiens, UniProt P35462); assay: [3H]N-methylspiperone competition, membranes; type: binding; details: read-out: pKi / D3R (converted)
T2 construct: gene DRD3; human cloned receptor stably expressed in HEK293 cells; membranes
Excerpt: [3H]N-methylspiperone competition, membranes on D3R (hD3R)

D4R (hD4.4R) = molecular target: T3, D4R (hD4.4R) (Homo sapiens, UniProt P21917); assay: [3H]N-methylspiperone competition, membranes; type: binding; details: read-out: pKi / D4R (converted)
T3 construct: gene DRD4; human cloned receptor stably expressed in HEK293 cells; membranes
T3 sequence (P21917 1-419): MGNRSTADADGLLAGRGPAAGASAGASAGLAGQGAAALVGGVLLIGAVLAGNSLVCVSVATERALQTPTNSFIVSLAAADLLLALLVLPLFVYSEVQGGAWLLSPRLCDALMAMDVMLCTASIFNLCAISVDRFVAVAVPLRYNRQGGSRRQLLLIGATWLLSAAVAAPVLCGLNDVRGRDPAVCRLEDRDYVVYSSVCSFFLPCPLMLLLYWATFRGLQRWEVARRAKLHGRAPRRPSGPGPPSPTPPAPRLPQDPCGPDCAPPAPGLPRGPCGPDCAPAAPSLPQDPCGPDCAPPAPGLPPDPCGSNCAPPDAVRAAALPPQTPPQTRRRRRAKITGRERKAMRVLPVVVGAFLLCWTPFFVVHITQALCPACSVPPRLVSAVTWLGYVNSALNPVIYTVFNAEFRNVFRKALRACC
Excerpt: [3H]N-methylspiperone competition, membranes on D4R (hD4.4R)

D4R (BRET assay) [1] = molecular target: T4, D4R (BRET assay) (Homo sapiens, UniProt P21917); assay: BRET Go activation, antagonist mode; type: cell-based
T4 construct: gene DRD4; expressed in HEK293T cells for BRET functional assays
T4 sequence (P21917 1-419): T3 sequence (P21917 1-419)

D4R (BRET assay) [2] = molecular target: T4, D4R (BRET assay); assay: BRET Go activation, agonist mode; type: cell-based; details: read-out: 16 (converted)

T2 sequence (P35462 whole entry): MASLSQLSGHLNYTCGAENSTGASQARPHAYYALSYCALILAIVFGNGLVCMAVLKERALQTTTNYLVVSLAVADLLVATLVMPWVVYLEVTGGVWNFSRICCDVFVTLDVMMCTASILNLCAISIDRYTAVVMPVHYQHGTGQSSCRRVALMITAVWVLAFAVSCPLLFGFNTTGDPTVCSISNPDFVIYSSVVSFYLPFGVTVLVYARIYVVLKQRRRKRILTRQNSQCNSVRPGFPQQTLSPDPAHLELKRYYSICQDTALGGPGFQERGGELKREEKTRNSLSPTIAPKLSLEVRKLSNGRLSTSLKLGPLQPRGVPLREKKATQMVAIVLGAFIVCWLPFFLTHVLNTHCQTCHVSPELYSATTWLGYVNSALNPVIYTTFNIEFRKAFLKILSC
T1 sequence (P14416 whole entry): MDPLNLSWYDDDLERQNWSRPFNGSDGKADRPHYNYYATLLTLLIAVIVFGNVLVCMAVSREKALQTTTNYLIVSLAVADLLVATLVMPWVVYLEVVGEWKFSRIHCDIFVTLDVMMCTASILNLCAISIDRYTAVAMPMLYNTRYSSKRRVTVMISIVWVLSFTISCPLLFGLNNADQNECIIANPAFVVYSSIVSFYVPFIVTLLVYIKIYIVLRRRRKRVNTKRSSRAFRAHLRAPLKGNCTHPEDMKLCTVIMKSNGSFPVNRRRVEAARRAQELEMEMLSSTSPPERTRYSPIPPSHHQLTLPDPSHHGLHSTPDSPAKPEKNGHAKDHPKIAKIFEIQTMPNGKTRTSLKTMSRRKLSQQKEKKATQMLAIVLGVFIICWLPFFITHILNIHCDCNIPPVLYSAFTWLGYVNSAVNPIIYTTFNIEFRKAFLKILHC

Structure (SMILES)	Ki (D2R (hD2R)) [nM]	Ki (D3R (hD3R)) [nM]	Ki (D4R (hD4.4R)) [nM]	IC50 (D4R (BRET assay) [1]; read-out: 12 (converted)) [nM]	EC50 (D4R (BRET assay) [2]) [nM]	IC50 (D4R (BRET assay) [1]; read-out: 16 (converted)) [nM]
CCCCC1CCN(CCN2C(=O)CCc3ccccc32)CC1 [compound 9, 1-(2-(4-Butylpiperidin-1-yl)ethyl)-3,4-dihydroquinolin-2(1H)-one]	8910	13200	17.4	–	–	–
CCCCC1CCN(CCCCN2C(=O)CCc3ccccc32)CC1 [compound 10, 1-(4-(4-Butylpiperidin-1-yl)butyl)-3,4-dihydroquinolin-2(1H)-one]	1350	309	23.4	–	–	–
CCCCC1CCN(CCCCCN2C(=O)CCc3ccccc32)CC1 [compound 11, 1-(5-(4-Butylpiperidin-1-yl)pentyl)-3,4-dihydroquinolin-2(1H)-one]	302	288	52.5	–	–	–
O=C1CCc2ccccc2N1CCN1CCC(Cc2ccccc2)CC1 [compound 12, 1-(2-(4-Benzylpiperidin-1-yl)ethyl)-3,4-dihydroquinolin-2(1H)-one]	661	933	0.661	214	–	–
O=C1CCc2ccccc2N1CCCCN1CCC(Cc2ccccc2)CC1 [compound 13, 1-(4-(4-Benzylpiperidin-1-yl)butyl)-3,4-dihydroquinolin-2(1H)-one]	1070	302	22.4	–	–	–
O=C1CCc2ccccc2N1CCCCCN1CCC(Cc2ccccc2)CC1 [compound 14, 1-(5-(4-Benzylpiperidin-1-yl)pentyl)-3,4-dihydroquinolin-2(1H)-one]	813	407	45.7	–	–	–
CCCCN1CCC(CCCN2C(=O)CCc3ccccc32)CC1 [compound 15, 1-(3-(1-Butylpiperidin-4-yl)propyl)-3,4-dihydroquinolin-2(1H)-one]	10200	1070	759	–	–	–
O=C1CCc2ccccc2N1CCCC1CCN(Cc2ccccc2)CC1 [compound 16, 1-(3-(1-Benzylpiperidin-4-yl)propyl)-3,4-dihydroquinolin-2(1H)-one]	3630	2000	1.62	–	4.37	61.7
O=C1CCc2ccccc2N1CCC1CCN(Cc2ccccc2)CC1 [compound 17, 1-(2-(1-Benzylpiperidin-4-yl)ethyl)-3,4-dihydroquinolin-2(1H)-one]	12600	8130	302	–	–	–
O=C1CCc2ccccc2N1CC1CCN(Cc2ccccc2)CC1 [compound 18, 1-((1-Benzylpiperidin-4-yl)methyl)-3,4-dihydroquinolin-2(1H)-one]	13200	7590	275	–	–	–
O=C1CCc2ccccc2N1CCCN1CC=C(c2ccccc2)CC1 [compound 19, 1-(3-(4-Phenyl-3,6-dihydropyridin-1(2H)-yl)propyl)-3,4-dihydroquinolin-2(1H)-one]	575	245	1.51	–	–	–
O=C1CCc2ccccc2N1CCCN1CCc2ccccc2C1 [compound 20, 1-(3-(3,4-Dihydroisoquinolin-2(1H)-yl)propyl)-3,4-dihydroquinolin-2(1H)-one]	447	229	28.2	–	–	–
